Nine molecules from publication PMC3633088 (Chemistry & biology, 2013) can be followed below.

Data set [1] concerns the target T1, hASNase3, cleaved (active) form, alpha and beta chains (Homo sapiens, UniProt Q7L266).
T1 sequence (Q7L266 1-167): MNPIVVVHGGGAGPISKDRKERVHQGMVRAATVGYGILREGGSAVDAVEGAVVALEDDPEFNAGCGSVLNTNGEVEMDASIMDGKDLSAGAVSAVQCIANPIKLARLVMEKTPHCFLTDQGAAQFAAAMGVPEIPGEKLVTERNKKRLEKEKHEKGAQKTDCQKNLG
T1 sequence (Q7L266 168-308): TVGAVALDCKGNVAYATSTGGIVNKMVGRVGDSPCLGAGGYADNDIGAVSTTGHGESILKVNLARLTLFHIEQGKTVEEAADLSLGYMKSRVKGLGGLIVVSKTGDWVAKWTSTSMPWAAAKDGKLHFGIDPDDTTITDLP
Description: asparaginase activity assay. The format is biochemical. To be noted: up to 50 mM; cleaved enzyme.

The target in data set [2] is T1, hASNase3, cleaved (active) form, alpha and beta chains. The experiment in a line: asparaginase activity assay. Type of data set: biochemical. The following applies: turnover by cleaved enzyme only; data not shown.
Data set [3] deals with T2, hASNase3, uncleaved form (human asparaginase 3; hASRGL1/ALP; CRASH) (Homo sapiens, UniProt Q7L266).
T2 sequence (Q7L266 1-308): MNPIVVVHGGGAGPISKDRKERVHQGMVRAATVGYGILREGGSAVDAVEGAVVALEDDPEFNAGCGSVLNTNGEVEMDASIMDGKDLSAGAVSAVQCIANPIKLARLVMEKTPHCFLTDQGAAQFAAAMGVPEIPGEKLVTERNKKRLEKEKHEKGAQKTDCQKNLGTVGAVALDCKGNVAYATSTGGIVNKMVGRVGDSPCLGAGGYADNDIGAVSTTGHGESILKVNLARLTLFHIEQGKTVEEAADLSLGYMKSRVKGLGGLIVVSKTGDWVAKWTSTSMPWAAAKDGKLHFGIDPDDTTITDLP
Description: autocleavage, SDS-PAGE band quantification. Type of data set: biochemical. The following applies: accelerates autoproteolysis; 5 mM glycine, pH 7.5, 25 °C, 42 hours.

Data set [4] deals with T1, hASNase3, cleaved (active) form, alpha and beta chains. The experiment in a line: X-ray crystal structure, […] Å. The following applies: crystal soaked in 3 M glycine, pH 4.9, <1 minute; substrate site (Arg196, Asp199). Type of data set: binding.
For data set [5] the target is unchanged. Description: asparaginase activity assay. The format is biochemical. The following applies: 10 or 50 mM glycine; cleaved enzyme.
Data set [6] deals with the molecule itself. The experiment in a line: crystal structure.
In data set [7] the target is T3, hASNase3 α-chain (human, UniProt Q7L266 1-167).
T3 sequence (looked up): T1 sequence (Q7L266 1-167)
Description: crystal structure.

Turning to `N[C@@H](CC(=O)O)C(=O)O` [L-aspartate], in data set [1], the “inhibition, concentration-dependent” value was “glycolate, glyoxylate, oxalate, L-aspartate, and serine showed a concentration-dependent effect”.
For `NC(=O)C[C@H](N)C(=O)O` [asparagine], in data set [2], the asparaginase activity assay entry is reported as “The measured asparaginase activity of hASNase3 was proportional to the amount of cleaved enzyme”.
Regarding `NCC(=O)O` [glycine], the “% cleavage at 5 mM” value in data set [3] was 40%. Besides, the “X-ray crystal structure, 1.91 Å” value in data set [4] is given as “In this post-cleavage state of hASNase3, glycine bound at the active site”. For the same molecule, the “% reduction of asparaginase activity at 10 or 50 mM” value in data set [5] is ~ 50%.
For `O=C(O)CO` [glycolate], in data set [1], the “inhibition, concentration-dependent” value was “glycolate, glyoxylate, oxalate, L-aspartate, and serine showed a concentration-dependent effect”.
Turning to `O=CC(=O)O` [glyoxylate], the “inhibition, concentration-dependent” value in data set [1] is “glycolate, glyoxylate, oxalate, L-aspartate, and serine showed a concentration-dependent effect”.
The same measure, in the same setting: as for `O=C(O)C(=O)O` [oxalate], the entry is “glycolate, glyoxylate, oxalate, L-aspartate, and serine showed a concentration-dependent effect”; as for `N[C@@H](CO)C(=O)O` [serine], “glycolate, glyoxylate, oxalate, L-aspartate, and serine showed a concentration-dependent effect”.

B1: Human asparaginase 3 (hASNase3), cleaved form (α- and β-chains) (complex)
chain 1: T1 sequence (Q7L266 1-167)
chain 2: T1 sequence (Q7L266 168-308)
For B1, the binding result in data set [6] is given as “binds”.

B2: hASNase3 β-chain (domain or fragment, human, UniProt Q7L266 168-308, looked up)
chain: T1 sequence (Q7L266 168-308)
Regarding B2, the binding result in data set [7] is listed as “binds”.
